# Measurements as given in patent publication US12178805B2, “Inhibitors of PDE6Delta for use in the prevention and/or treatment of epilepsy and/or neurodegenerative disorders” (ReMYND N.V., priority 2017, dated 2024).
# Tests used:
# [1] = system: M17-TAU P301L cells; assay: TAU-toxicity model, LDH leakage of retinoic acid incubated M17-TAU P301L cells; type: cell-based, human; details: non-silenced cells
# Source text: A TAU expression plasmid was constructed by sub-cloning the cDNA of human TAU-P301L (encoding for TAU with proline 301 substituted by a leucine residue) into mammalian expression vector pcDNA3.1 resulting in plasmid pcDNA3.1-TAU P301L. Plasmids pcDNA3.1 and pcDNA3.1-TAU P301L were transfected to human neuroblastoma cells ([…]; ATCC No. CRL-2267) and independent clonal lines with the plasmids stably integrated into the genome were selected. […] Expression of the TAU P301L genes in the cell lines was confirmed by Western analysis.
# In degenerated or dead cells lactate dehydrogenase (LDH) leaks out of the cells into the extracellular environment due to a loss of plasma-membrane integrity. This principle was used to determine cytotoxicity by quantifying the level of leaked LDH into the growth medium relative to the sum of total LDH activity from living cells and dead cells.
# (§1) The detailed method for determining cytotoxicity was as follows: From appropriate precultures of M17-3.1 and M17-TAU(P301L) cells were seeded at 2500 cells/cm2 in Optimem Reduced Serum without phenol red (Gibco, Cat. 31985-047) supplemented with 1% fetal calf serum, 1 mM sodium pyruvate, 1× non-essential amino acids, 500 μg/ml G418 0.5×antibiotic/antimycotic. After 3 hours of incubation at 37° C./5% CO2 1 volume of Optimem Reduced Serum (same as described above; except without fetal calf serum) supplemented with 2.5 μM all-trans retinoic acid (ATRA) was added. The cells were further incubated for 7 days. Subsequently, LDH activity was determined using Promega Cytotox 96 Non-Radioactive cytotoxicity assay, (Cat. G1780) according the supplier's instructions.
# The M17-TAU P301L cell line made it possible to assess the ability of novel compounds to inhibit PDE6δ and counteract TAU cytotoxicity. […] These measurements were used to calculate EC50 values.
# [2] = system: PDE6δ silenced cells; assay: TAU-toxicity model in PDE6δ silenced cells; type: cell-based, human; details: compared with non-silenced cells
# [3] = biological target: T1, RAP1A binding on PDE6δ (Homo sapiens, UniProt O43924); assay: PDE6δ-STREP/HA pull-down from HEK293 cells with quantitative mass spectrometry of interactors; type: cell-based; details: 1 hour incubation of 1 μM
# T1 construct: expressed in transfected cells
# T1 sequence (O43924 whole entry): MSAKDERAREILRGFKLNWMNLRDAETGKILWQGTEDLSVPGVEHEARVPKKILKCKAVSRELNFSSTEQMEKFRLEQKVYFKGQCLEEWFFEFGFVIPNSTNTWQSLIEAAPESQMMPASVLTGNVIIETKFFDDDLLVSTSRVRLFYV
# Source text: PDE6δ together with associated proteins was precipitated from a cellular extract either in the presence or absence of Compound A:
# Using mass spectrometry based techniques interacting proteins were quantitatively identified in function of compound presence (FIG. 11).
# In the absence of Compound A a host of interacting proteins were identified including known interactors such as Arl3 and RPGR. […] This effect is highly specific since a non-prenylated interactor of PDE6δ such as Arl3 which bind PDE6δ via different mechanisms is not impacted.
# The cDNA encoding human PDE6δ was fused with a STREP-HA tag encoding DNA sequence and expressed in HEK293 cells using a standard expression vector. The bait sequence was verified by sequencing. […] Bait expression and solubility was monitored by immunoblotting using anti-HA antibodies. […]
# Affinity purification and mass spectrometrical analysis of PDE6δ-strep-HA expressed in HEK293 cells was performed with three biological replicates for label free quantitative mass spectrometrical analysis. The samples were analyzed on a Thermo LTQ Orbitrap XL spectrometer using a C18 column, ESI and a 60 min gradient. The signals' intenstity are provided as 2 Log values and correlates to the concentration of the detected mass (number/amount of peptide). […]
# [4] = system: VGCC activity in primary neurons; assay: KCl-induced Ca2+ influx (VGCC activity) in primary neurons; type: cell-based, mouse; details: for inhibition at 10 µM: Mus musculus, Primary neuron, relative to vehicle treated neurons, KCl depolarisation, read-out: % inhibition of cytosolic Ca^2+ influx
# Protocol: Examplary compound 6 was tested for its ability to inhibit VGCC activity in primary neurons. Neurons from mouse embryos were harvested and cultured using standard methods (such as used in Schlager et al., 2014. Cell reports, 8(5), pp. 1248-56). To stimulate VGCC activity, neurons were depolarized using 45 mM KCl and incubated with vehicle or 1.5 μM of compound. Calcium influx was measured using fluorescent cytosolic Ca^2+ detection reagent Fura2.
# Changes in cytosolic Ca^2+ concentrations were measured after loading the cells with Fura-2 AM (Sigma-Aldrich), a cell permeable fluorescent probe for Ca^2+. Briefly, Fura-2-AM was dissolved in DMSO plus 20% Pluronic Acid (F-127) (Invitrogen) in a 1:1 ratio and diluted in medium to a final concentration of 0.5 μM. Probenecid (Sigma-Aldrich) was added to this loading medium at a final concentration of 2.5 mM. Then, culture medium was replaced by loading medium and after incubation for 1 hour at 37° C. cells were washed twice and replaced with HBSS (Gibco) supplemented with 0.2% FBS and 0.02M HEPES. Next, changes in cytosolic calcium were measured using a FlexStation 3 microplate reader (Molecular Devices) and quantified ratiometric, by calculating changes in the amount of cytosolic Ca^2+ bound Fura-2 (fluorescence intensity at 340 nm) relative to the amount of Ca^2+ unbound Fura-2 (fluorescence intensity at 380 nm). Data was processed in SoftMax Pro 5.4.6 software (Molecular Devices).
# Compounds 1-7 were tested at 10 μM for their ability to inhibit Ca^2+ influx in primary neurons (FIG. 5) as described in Example 21 (Table 5). Primary neurons treated with vehicle in which no compound was dissolved was used as a no-effect control. The percentage (%) inhibition of Ca^2+ influx relative to vehicle treated neurons was calculated.
# [5] = system: RAP1A silenced cells; assay: TAU-toxicity model in RAP1A silenced cells; type: cell-based, human; details: compared with non-silenced cells
# Protocol: as §1
# [6] = system: primary rat hippocampal neurons; assay: ex-vivo inhibition of oligomeric amyloid beta (Aβo/ADDL) toxicity in primary neurons; type: cell-based; details: 100 ng/mL, 1000 nM ADDL, 24 h
# Protocol: An exemplary compound of this invention was tested for its ability to inhibit toxicity elicited by oligomeric amyloid beta (Aβo). Neurons from rat embryos were harvested and cultured using standard methods (such as used in Schlager et al., 2014. Cell reports, 8(5), pp. 1248-56.). Differentiated neurons were challenged with Aβo and viability was quantified.
# At day in-vitro 19 days after isolation primary hippocampal neurons were transfected with Marcks-GFP in order to visualize the neurons with fluorescence microscopy.
# ADDL (Abeta-derived diffusible ligands) preparation (representing Aβo) was done according to Klein (Klein, 2002. Neurochemistry international, 41(5), pp. 345-52.). Abeta 1-42 was purchased from AnaSpec Inc. and dissolved in HFIP to homogenize the peptide. HFIP was then evaporated in a speedvac and Abeta film was dried at −20° C. overnight over desiccant. Abeta film was then resolubilised in 100% DMSO and further diluted (1/25) in Ham's F12 medium. Blanks were prepared by adding equal amounts of DMSO to Ham's F12 medium. Abeta and Blank solutions were incubated overnight at 4° C.
# At day in-vitro 21 primary rat hippocampal neurons were treated with equal volume of Blank/ADDL solution amounting to 0 and 1000 nM ADDL. Cultures were kept at 37° C. 5% CO2 for 24 h before PFA fixation. Viability was assessed using the Live-Dead assay from Thermo Fisher Catalog number: L3224.
# [7] = system: phosphorylated TAU in brain; assay: in vivo TAU phosphorylation in brain of transgenic APP*PS1 mice, Western analysis; set-up: species or system mouse; details: 20 mg/kg daily subcutaneously, 5-month old APP*PS1 mice, versus vehicle
# Protocol: Transgenic human 5-month old APP*PS1 mice (The Journal of Neuroscience, Sep. 1, 2000, 20(17):6452-6458) were treated daily subcutaneously with 20 mg/kg Compound 6 or for two weeks with Compound A:
# At the end of the treatment period, mice were sacrificed and the corresponding brains were used for biochemical analysis.
# [8] = system: transgenic human APP mice; assay: Morris Water Maze test in transgenic APP mice; type: in vivo, mouse; details: 20 mg/kg subcutaneously, daily for 8 weeks, versus vehicle
# Protocol: Transgenic human 4-month old APP mice (THE JOURNAL OF BIOLOGICAL […] Vol. 274, No. 10, Issue of March 5, pp. 6483-6492, 1999) were treated subcutaneously, daily for 8 weeks with examplary Compound 6 at 20 mg/kg (FIG. 7). Cognition was assessed using the Morris Water Maze test. […] After the learning phase a probe test was conducted in which the platform was removed from the water bath to evaluate the spatial memory of the location of the platform.
# Both indices indicate that compound treated mice have improved cognitive performance almost identical to wild type controls compared to vehicle treated mice.
# [9] = system: CA1 pyramidal neurons in tgAPP mouse brain slices; assay: firing rate of CA1 neurons in brain slices of tgAPP mice, patch clamp; details: 2 μM, 1 hr perfusion
# Protocol: Brain slices from wild type and tgAPP mice were incubated with DMSO or Compound 6. Neurons were stimulated with increasing currents and the frequency of action potentials was measured.
# Acute sagittal brain slices from WT or hAPP mice were prepared by decapitation of the mice after isoflurane anaesthesia. Brains were removed quickly and immersed during 3-4 min in ice-cold freshly prepared cutting artificial cerebrospinal fluid (cutting aCSF) containing (in mM) 214 sucrose, 2.5 KCl, 2 CaCl2), 2 MgSO4, 1.25 NaH2PO2, 26 NaHCO3 and 10 glucose and oxygenated with 95% O2/5% CO2. Sagittal 350 μm slices were generated using a vibratome (VT 1000S; Leica Microsystems) and were incubated in standard carboxygenated aCSF (in mM: 125 NaCl, 2.5 KCl, 2 CaCl2), 2 MgSO4, 1.25 NaH2PO2, 26 NaHCO3 and 10 glucose, osmolarity 305 mOsm) at 34° C. during 20 min. The incubation continued at room temperature (RT) for another hour before each slice was transferred to a submerged recording chamber and perfused continuously with carboxygenated aCSF. […]
# Dendritic firing rate of CA1 cells was recorded in response to hyperpolarizing and depolarizing steps (−0.4 to +0.45 nA, steps of 0.05 nA) after a 1 hr perfusion with vehicle or compound at 2 μM. […]
# [10] = system: mouse brain slices; assay: afterhyperpolarization of single action potentials in mouse brain slices; details: slices incubated with compound versus vehicle
# Protocol: A single spike was elicited by injecting a 2 ms depolarizing current pulse (35 pA) and action potential (AP) parameters were at baseline and after 25 min vehicle or compound perfusion.
# Action potentials (AP) after electrical stimulation of mouse brain slices were analysed (FIG. 14).
# The experiment was performed as described in Example 24.
structure (smiles),measurement,setting,value
"c1ccc(Cn2c(-c3ccc(OC[C@H](C4CCNCC4)n4c(-c5ccccc5)nc5ccccc54)cc3)nc3ccccc32)cc1 [Deltarasin, reference compound]",effect on TAU-induced toxicity,[1],lowered toxicity
same,effect of the compound on lowering toxicity in PDE6δ silenced cells,[2],strongly reduced
O=C(NCCc1c[nH]c2ccc(Cl)cc12)c1cc(Cc2cc(F)ccc2F)on1 [Compound A],interaction of Arl3 (non-prenylated interactor) with PDE6δ,[3],not impacted
same,interaction of RAP1A with PDE6δ,[3],specifically reduced
O=C(NCCc1c[nH]c2ccc(F)cc12)c1cc(Cc2cccc(F)c2F)on1 [Compound 5],inhibition at 10 µM,[4],42%
O=C(NCCc1c[nH]c2ccc(F)cc12)c1cc(Cc2ccc(F)c(F)c2)on1 [Compound 2],inhibition at 10 µM,[4],48%
O=C(NCCc1c[nH]c2ccc(F)cc12)c1cc(Cc2ccc(F)cc2)on1 [Compound 4],inhibition at 10 µM,[4],39%
O=C(NCCc1c[nH]c2ccc(F)cc12)c1cc(Cc2cc(F)cc(F)c2)on1 [Compound 3],inhibition at 10 µM,[4],42%
COC(=O)C1=C(C)NC(C)=C(C(=O)OC(C)C)C1c1cccc2nonc12 (stereo not shown) [isradepine],effect on TAU-induced toxicity,[1],lowered toxicity
O=C(NCCc1c[nH]c2ccc(F)cc12)c1cc(Cc2ccc(F)cc2F)on1 [Compound 1],inhibition at 10 µM,[4],43%
O=C(NCCc1c[nH]c2ccc(F)cc12)c1cc(Cc2cc(F)ccc2F)on1 [Compound 6],effect on TAU-induced toxicity,[1],reduced toxicity
same,effect of the compound on lowering toxicity in PDE6δ silenced cells,[2],strongly reduced
same,compound effect on reducing neurotoxicity in RAP1A silenced cells,[5],strongly reduced
same,Ca^2+ influx upon KCl depolarisation,"[4]; 1.5 μM, 45 mM KCl",significantly reduced
same,inhibition at 10 µM,[4],43%
same,neuronal viability in Aβo treated neurons,[6],strongly rescued
same,TAU phosphorylation in brain extracts,[7],effectively reduced TAU phosphorylation
same,annulus crossing index in probe test,[8],higher annulus crossing index score
same,search path during training phase,[8],reduced search path
same,frequency of action potentials at high stimulation,[9],significantly lowered the frequency towards wild type level
same,afterhyperpolarization of action potentials,[10],increased
O=C(NCCc1c[nH]c2ccc(F)cc12)c1cc(Cc2ccccc2F)on1 [Compound 7],inhibition at 10 µM,[4],56%
